Measured values: US7192906B2, “Substituted pyrazole derivatives, production process thereof, and herbicide compositions containing the derivatives” (SDS Biotech K.K., priority 2001, dated 2007)

Columns and labels:
Type in all cases: in vivo
[1] = test system: soybean (Glycine max); assay: Test Example 2 upland soil treatment, crop phytotoxicity; conditions: Table 5, upland soil treatment, index 0-5
How it was run: (§1)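 Visual 0–5 grading of herbicidal effect or phytotoxicity, made 21 days after a single pre-emergence soil-surface application at 1 kg a.i./ha.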

[2] = test system: wheat (Triticum aestivum); assay: as above; conditions: Table 5, upland soil treatment, index 0-5
How it was run: as §1

[3] = test system: Rice (Oryza sativa); assay: Test Example 3 paddy field treatment, crop phytotoxicity; conditions: active ingredient 1 kg per hectare, index 0-5
How it was run: (§2)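 Weed seeds sown in puddled paddy soil under 4 cm water, with two-leaf Koshihikari rice transplanted; 10 days later a wettable powder was applied to the water surface at 1 kg active ingredient/ha. Scored 21 days after application on a 0–5 scale (0 = <10%, 5 = ≥90% herbicidal effect or phytotoxicity).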

[4] = test system: soybean (Glycine max); assay: Test Example 1 upland field foliage treatment, crop phytotoxicity; conditions: Table 4, upland field foliage treatment, index 0-5
How it was run: (§3)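 Scores are visual 0–5 ratings of herbicidal effect or crop injury (0: under 10%; 5: 90% or more) taken 21 days after treatment. Plants grew from seed in upland soil for 14 days, then foliage received the compound as a water-diluted wettable powder at 1 kg/ha active ingredient.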

[5] = test system: wheat (Triticum aestivum); assay: as above; conditions: Table 4, upland field foliage treatment, index 0-5
How it was run: as §3

[6] = test system: Chenopodium album; assay: Test Example 2 upland soil treatment; conditions: Table 5, upland soil treatment, index 0-5
How it was run: as §1

[7] = test system: Stellaria media; assay: Test Example 2 upland soil treatment; conditions: Table 5, upland soil treatment, index 0-5
How it was run: as §1

[8] = test system: Setaria viridis; assay: Test Example 2 upland soil treatment; conditions: Table 5, upland soil treatment, index 0-5
How it was run: as §1

[9] = test system: Digitaria adscendens; assay: Test Example 2 upland soil treatment; conditions: Table 5, upland soil treatment, index 0-5
How it was run: as §1

[10] = test system: Echinochloa crusgalli; assay: Test Example 3 paddy field treatment; conditions: active ingredient 1 kg per hectare, index 0-5
How it was run: as §2

[11] = test system: Scirpus juncoides; assay: Test Example 3 paddy field treatment; conditions: active ingredient 1 kg per hectare, index 0-5
How it was run: as §2

[12] = test system: Ammannia multiflora; assay: Test Example 3 paddy field treatment; conditions: active ingredient 1 kg per hectare, index 0-5
How it was run: as §2

[13] = test system: Monochoria vaginalis; assay: Test Example 3 paddy field treatment; conditions: active ingredient 1 kg per hectare, index 0-5
How it was run: as §2

[14] = test system: Chenopodium album; assay: Test Example 1 upland field foliage treatment; conditions: Table 4, upland field foliage treatment, index 0-5
How it was run: as §3

[15] = test system: Stellaria media; assay: Test Example 1 upland field foliage treatment; conditions: Table 4, upland field foliage treatment, index 0-5
How it was run: as §3

[16] = test system: Setaria viridis; assay: Test Example 1 upland field foliage treatment; conditions: Table 4, upland field foliage treatment, index 0-5
How it was run: as §3

[17] = test system: Digitaria adscendens; assay: Test Example 1 upland field foliage treatment; conditions: Table 4, upland field foliage treatment, index 0-5
How it was run: as §3

[18] = paddy field treatment, wettable powder, 21st day after the dropping
[19] = Table 6, paddy field treatment, 21st day after dropping

| SMILES | Herbicidal activity (phytotoxicity) GM: Soybean (Glycine max) [1] | Herbicidal activity (phytotoxicity) TA: Wheat (Triticum aestivum) [2] | Herbicidal activity (phytotoxicity) GM: Soybean (Glycine max) [4] | Herbicidal activity (phytotoxicity) TA: Wheat (Triticum aestivum) [5] | Herbicidal activity CA: Chenopodium album [6] | Herbicidal activity SM: Stellaria media [7] | Herbicidal activity SV: Setaria viridis [8] | Herbicidal activity DA: Digitaria adscendens [9] | Herbicidal activity CA: Chenopodium album [14] | Herbicidal activity SM: Stellaria media [15] | Herbicidal activity SV: Setaria viridis [16] | Herbicidal activity DA: Digitaria adscendens [17] | other results |
| --- | --- | --- | --- | --- | --- | --- | --- | --- | --- | --- | --- | --- | --- |
| CNC(=O)C(Cn1cc(Cl)c(-c2ccccc2)n1)=NOC [Compound 14] | 1 (herbicidal effect of not less than 10% and less than 30%, or phytotoxicity of 10% or more and less than 30%) | 0 (herbicidal effect of not less than 0% and less than 10%, or phytotoxicity of 0% or more and less than 10%) | 0 (herbicidal effect of not less than 0% and less than 10%, or phytotoxicity of 0% or more and less than 10%) | 0 (herbicidal effect of not less than 0% and less than 10%, or phytotoxicity of 0% or more and less than 10%) | 5 (herbicidal effect of not less than 90%, or phytotoxicity of 90% or more) | 5 (herbicidal effect of not less than 90%, or phytotoxicity of 90% or more) | 5 (herbicidal effect of not less than 90%, or phytotoxicity of 90% or more) | 5 (herbicidal effect of not less than 90%, or phytotoxicity of 90% or more) | 5 (herbicidal effect of not less than 90%, or phytotoxicity of 90% or more) | 5 (herbicidal effect of not less than 90%, or phytotoxicity of 90% or more) | 5 (herbicidal effect of not less than 90%, or phytotoxicity of 90% or more) | 5 (herbicidal effect of not less than 90%, or phytotoxicity of 90% or more) | Herbicidal activity OS (phytotoxicity to rice) ([3]; paddy field treatment, transplanted rice Koshihikari, wettable powder, 21st day after the dropping): 1 (herbicidal effect of not less than 10% and less than 30%, or phytotoxicity of 10% or more and less than 30%); Herbicidal activity EC [10, 18]: 5 (herbicidal effect of not less than 90%, or phytotoxicity of 90% or more); Herbicidal activity SJ [11, 18]: 5 (herbicidal effect of not less than 90%, or phytotoxicity of 90% or more); Herbicidal activity AM [12, 18]: 5 (herbicidal effect of not less than 90%, or phytotoxicity of 90% or more); Herbicidal activity MV [13, 18]: 5 (herbicidal effect of not less than 90%, or phytotoxicity of 90% or more) |
| CNC(=O)C(Cn1cc(C)c(-c2cccc(F)c2F)n1)=NOC [Compound 55] | 0 (herbicidal effect of not less than 0% and less than 10%, or phytotoxicity of 0% or more and less than 10%) | 0 (herbicidal effect of not less than 0% and less than 10%, or phytotoxicity of 0% or more and less than 10%) |  |  | 5 (herbicidal effect of not less than 90%, or phytotoxicity of 90% or more) | 5 (herbicidal effect of not less than 90%, or phytotoxicity of 90% or more) | 5 (herbicidal effect of not less than 90%, or phytotoxicity of 90% or more) | 5 (herbicidal effect of not less than 90%, or phytotoxicity of 90% or more) |  |  |  |  | Herbicidal activity (phytotoxicity) OS ([3]; Table 6, paddy field treatment, transplanted rice, 21st day after dropping): 0 (herbicidal effect of not less than 0% and less than 10%, or phytotoxicity of 0% or more and less than 10%); Herbicidal activity EC [10, 19]: 5 (herbicidal effect of not less than 90%, or phytotoxicity of 90% or more); Herbicidal activity SJ [11, 19]: 5 (herbicidal effect of not less than 90%, or phytotoxicity of 90% or more); Herbicidal activity AM [12, 19]: 5 (herbicidal effect of not less than 90%, or phytotoxicity of 90% or more); Herbicidal activity MV [13, 19]: 5 (herbicidal effect of not less than 90%, or phytotoxicity of 90% or more) |
| CNC(=O)C(Cn1cc(C)c(-c2ccccc2)n1)=NOCc1ccccc1 [Compound 106] | 0 (herbicidal effect of not less than 0% and less than 10%, or phytotoxicity of 0% or more and less than 10%) | 0 (herbicidal effect of not less than 0% and less than 10%, or phytotoxicity of 0% or more and less than 10%) | 0 (herbicidal effect of not less than 0% and less than 10%, or phytotoxicity of 0% or more and less than 10%) | 0 (herbicidal effect of not less than 0% and less than 10%, or phytotoxicity of 0% or more and less than 10%) | 4 (herbicidal effect of not less than 70% and less than 90%, or phytotoxicity of 70% or more and less than 90%) | 4 (herbicidal effect of not less than 70% and less than 90%, or phytotoxicity of 70% or more and less than 90%) | 3 (herbicidal effect of not less than 50% and less than 70%, or phytotoxicity of 50% or more and less than 70%) | 4 (herbicidal effect of not less than 70% and less than 90%, or phytotoxicity of 70% or more and less than 90%) | 3 (herbicidal effect of not less than 50% and less than 70%, or phytotoxicity of 50% or more and less than 70%) | 3 (herbicidal effect of not less than 50% and less than 70%, or phytotoxicity of 50% or more and less than 70%) | 3 (herbicidal effect of not less than 50% and less than 70%, or phytotoxicity of 50% or more and less than 70%) | 3 (herbicidal effect of not less than 50% and less than 70%, or phytotoxicity of 50% or more and less than 70%) |  |
| CON=C(Cn1cc(C)c(-c2ccccc2)n1)C(=O)NN(C)C [Compound 124] | 0 (herbicidal effect of not less than 0% and less than 10%, or phytotoxicity of 0% or more and less than 10%) | 0 (herbicidal effect of not less than 0% and less than 10%, or phytotoxicity of 0% or more and less than 10%) | 0 (herbicidal effect of not less than 0% and less than 10%, or phytotoxicity of 0% or more and less than 10%) | 0 (herbicidal effect of not less than 0% and less than 10%, or phytotoxicity of 0% or more and less than 10%) | 5 (herbicidal effect of not less than 90%, or phytotoxicity of 90% or more) | 4 (herbicidal effect of not less than 70% and less than 90%, or phytotoxicity of 70% or more and less than 90%) | 3 (herbicidal effect of not less than 50% and less than 70%, or phytotoxicity of 50% or more and less than 70%) | 3 (herbicidal effect of not less than 50% and less than 70%, or phytotoxicity of 50% or more and less than 70%) | 4 (herbicidal effect of not less than 70% and less than 90%, or phytotoxicity of 70% or more and less than 90%) | 4 (herbicidal effect of not less than 70% and less than 90%, or phytotoxicity of 70% or more and less than 90%) | 3 (herbicidal effect of not less than 50% and less than 70%, or phytotoxicity of 50% or more and less than 70%) | 3 (herbicidal effect of not less than 50% and less than 70%, or phytotoxicity of 50% or more and less than 70%) |  |
